Molecular target: T1, EZH2 within the PRC2 complex (Homo sapiens, UniProt Q15910)
T1 construct: FLAG; made in house; host or cells: Sf9 cells
Assay: Assay Protocol 2: EZH2 methyltransferase scintillation proximity assay, biotinylated histone H3 peptide substrate
Type: biochemical
Conditions: SPA, 3H-SAM, biotinylated unmethylated histone H3K27 peptide substrate, 5-member PRC2 complex
Experimental: Compounds contained herein were evaluated for their ability to inhibit the methyltransferase activity of EZH2 within the PRC2 complex. […] The peptides were captured on streptavidin-coated SPA beads and the resulting signal was read on a ViewLux plate reader. • 4. Prepare 10 mM stock of compounds from solid in 100% DMSO. • 5. […] Dispense 10 nL of compound from the dilution plate into reaction plates (Corning, 384-well polystyrene NBS, Cat#3673). Prepare the following solutions: • 7. 1× Base Buffer, 50 mM Tris-HCl, pH 8, 2 mM MgCl2: Per 1 L of base buffer, combine 1 M Tris-HCl, pH 8 (50 mL), 1 M MgCl2 (2 mL), and distilled water (948 mL). • 8. 1× Assay Buffer: Per 10 mL of 1× Assay Buffer, combine 1× Base Buffer (9.96 mL), 1 M DTT (40 uL), and 10% Tween-20 (1 uL) to provide a final concentration of 50 mM Tris-HCl, pH 8, 2 mM MgCl2, 4 mM DTT, 0.001% Tween-20. • 9. 2× Enzyme Solution: […] SPA Bead Solution: Per 1 mL of SPA Bead Solution, combine Streptavidin coated SPA beads (PerkinElmer, Cat# RPNQ0261, 40 mg) and 1× Assay Buffer (1 mL) to provide a working concentration of 40 mg/mL. • 11. 2× Substrate Solution: Per 10 mL of 2× Substrate Solution, combine 40 mg/mL SPA Bead Solution (375 uL), 1 mM biotinylated histone H3K27 peptide (200 uL), 12.5 uM 3H-SAM (240 uL; 1 mCi/mL), 1 mM cold SAM (57 uL), and 1× Assay Buffer (9.13 mL) to provide a final concentration of 0.75 mg/mL SPA Bead Solution, 10 uM biotinylated histone H3K27 peptide, 0.15 uM 3H-SAM (˜12 uCi/mL 3H-SAM), and 2.85 uM cold SAM. • 12. 2.67× Quench Solution: Per 10 mL of 2.67× Quench Solution, combine 1× Assay Buffer (9.73 mL) and 10 mM cold SAM (267 uL) to provide a final concentration of 100 uM cold SAM. • 3. […] Dispense 5 uL/well of 1× Assay Buffer to column 18 (low control reactions). • 11. Dispense 5 uL/well of 2× Substrate Solution to columns 1-24 (note: substrate solution should be mixed to ensure homogeneous bead suspension before dispensing into matrix reservoir). • 12. Dispense 5 uL/well of 2× Enzyme Solution to columns 1-17, 19-24. • 13. Incubate the reaction for 60 min at room temperature. • 5. Dispense 6 uL/well of the 2.67× Quench Solution to columns 1-24. • 6. Seal assay plates and spin for ˜1 min at 500 rpm. • 7. Dark adapt plates in the ViewLux instrument for 15-60 min. • 2. Read the assay plates on the Viewlux Plate Reader utilizing the 613 nm emission filter or clear filter (300 s exposure). Reagent addition can be done manually or with automated liquid handler. Percent inhibition was calculated relative to the DMSO control for each compound concentration and the resulting values were fit using standard IC50 fitting parameters within the ABASE data fitting software package.

T1 sequence (Q15910 whole entry): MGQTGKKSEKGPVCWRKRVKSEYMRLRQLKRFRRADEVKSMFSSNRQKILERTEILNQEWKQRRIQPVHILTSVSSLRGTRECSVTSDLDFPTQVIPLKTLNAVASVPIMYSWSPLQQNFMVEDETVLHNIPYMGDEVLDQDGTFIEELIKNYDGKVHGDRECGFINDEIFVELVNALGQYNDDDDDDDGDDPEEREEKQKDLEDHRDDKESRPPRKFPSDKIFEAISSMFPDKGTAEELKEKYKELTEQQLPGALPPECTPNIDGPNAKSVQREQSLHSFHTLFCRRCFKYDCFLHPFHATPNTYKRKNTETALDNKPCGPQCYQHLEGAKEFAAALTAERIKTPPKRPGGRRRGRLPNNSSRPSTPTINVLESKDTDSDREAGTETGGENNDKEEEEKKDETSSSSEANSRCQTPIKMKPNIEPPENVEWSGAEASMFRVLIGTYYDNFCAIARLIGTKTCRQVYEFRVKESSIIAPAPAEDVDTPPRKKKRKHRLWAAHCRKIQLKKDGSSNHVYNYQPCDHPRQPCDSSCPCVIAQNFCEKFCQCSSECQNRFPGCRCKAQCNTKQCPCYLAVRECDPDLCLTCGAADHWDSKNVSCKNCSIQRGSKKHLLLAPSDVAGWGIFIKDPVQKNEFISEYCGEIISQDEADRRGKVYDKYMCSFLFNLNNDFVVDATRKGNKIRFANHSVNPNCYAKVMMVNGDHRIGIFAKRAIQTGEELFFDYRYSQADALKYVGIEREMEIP
T1 sequence (O75530 whole entry partner): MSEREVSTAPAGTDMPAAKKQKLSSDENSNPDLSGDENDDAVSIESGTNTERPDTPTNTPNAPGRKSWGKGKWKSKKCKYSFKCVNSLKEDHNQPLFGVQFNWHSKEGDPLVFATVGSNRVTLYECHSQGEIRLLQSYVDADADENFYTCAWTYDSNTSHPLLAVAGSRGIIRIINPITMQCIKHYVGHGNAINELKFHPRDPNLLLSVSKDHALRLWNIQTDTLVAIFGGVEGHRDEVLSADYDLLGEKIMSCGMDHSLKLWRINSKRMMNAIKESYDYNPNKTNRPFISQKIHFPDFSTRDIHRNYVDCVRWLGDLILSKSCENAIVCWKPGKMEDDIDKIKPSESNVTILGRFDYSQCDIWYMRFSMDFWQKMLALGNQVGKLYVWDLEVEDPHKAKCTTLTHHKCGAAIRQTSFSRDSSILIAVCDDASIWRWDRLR
T1 sequence (Q15022 whole entry partner): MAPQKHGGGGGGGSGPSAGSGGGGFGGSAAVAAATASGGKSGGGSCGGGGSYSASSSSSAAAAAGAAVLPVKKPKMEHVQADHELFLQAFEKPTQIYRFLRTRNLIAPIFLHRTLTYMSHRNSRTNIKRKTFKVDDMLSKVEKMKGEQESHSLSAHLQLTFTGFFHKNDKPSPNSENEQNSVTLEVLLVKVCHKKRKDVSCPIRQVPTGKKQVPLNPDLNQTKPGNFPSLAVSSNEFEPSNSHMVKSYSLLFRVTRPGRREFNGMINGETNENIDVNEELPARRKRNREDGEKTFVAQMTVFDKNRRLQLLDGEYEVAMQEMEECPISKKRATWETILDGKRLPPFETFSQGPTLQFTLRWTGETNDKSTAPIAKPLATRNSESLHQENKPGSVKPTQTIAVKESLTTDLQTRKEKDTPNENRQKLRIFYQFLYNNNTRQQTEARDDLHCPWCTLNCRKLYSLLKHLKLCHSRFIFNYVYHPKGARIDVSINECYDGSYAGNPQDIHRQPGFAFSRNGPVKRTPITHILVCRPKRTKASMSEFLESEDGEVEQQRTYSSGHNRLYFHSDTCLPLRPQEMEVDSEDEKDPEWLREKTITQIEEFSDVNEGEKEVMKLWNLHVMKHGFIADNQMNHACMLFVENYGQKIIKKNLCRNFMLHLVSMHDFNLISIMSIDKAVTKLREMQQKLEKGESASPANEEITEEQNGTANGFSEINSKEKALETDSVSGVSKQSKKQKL
T1 sequence (Q09028 whole entry partner): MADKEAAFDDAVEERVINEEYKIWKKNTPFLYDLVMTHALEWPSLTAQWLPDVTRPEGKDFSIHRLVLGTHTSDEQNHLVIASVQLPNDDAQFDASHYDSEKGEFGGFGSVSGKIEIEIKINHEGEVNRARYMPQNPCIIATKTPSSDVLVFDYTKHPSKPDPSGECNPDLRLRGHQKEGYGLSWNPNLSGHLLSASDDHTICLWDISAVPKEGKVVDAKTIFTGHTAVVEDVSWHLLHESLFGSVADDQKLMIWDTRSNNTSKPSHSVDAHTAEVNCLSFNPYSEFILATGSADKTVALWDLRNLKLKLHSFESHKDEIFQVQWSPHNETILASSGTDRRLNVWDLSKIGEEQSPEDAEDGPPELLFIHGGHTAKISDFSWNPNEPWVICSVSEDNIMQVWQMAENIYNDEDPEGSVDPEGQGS
T1 sequence (Q6ZN18 whole entry partner): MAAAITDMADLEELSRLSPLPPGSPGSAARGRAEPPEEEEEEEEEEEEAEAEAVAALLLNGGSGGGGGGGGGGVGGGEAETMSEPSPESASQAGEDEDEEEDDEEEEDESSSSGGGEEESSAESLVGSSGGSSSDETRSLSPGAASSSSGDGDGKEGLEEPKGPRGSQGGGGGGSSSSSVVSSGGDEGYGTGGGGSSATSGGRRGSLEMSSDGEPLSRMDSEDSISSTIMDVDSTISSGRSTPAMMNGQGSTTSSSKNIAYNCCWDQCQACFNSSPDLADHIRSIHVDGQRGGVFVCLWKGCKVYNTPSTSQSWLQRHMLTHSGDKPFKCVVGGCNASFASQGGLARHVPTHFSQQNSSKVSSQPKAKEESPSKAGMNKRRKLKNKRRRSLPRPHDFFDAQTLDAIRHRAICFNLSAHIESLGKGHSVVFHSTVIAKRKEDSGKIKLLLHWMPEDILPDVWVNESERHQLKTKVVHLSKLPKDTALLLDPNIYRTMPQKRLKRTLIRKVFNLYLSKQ

| IC50 [nM] | SMILES |
| --- | --- |
| 251 | CCN(c1nccc2c1C/C=C/CCc1cc(C)[nH]c(=O)c1CNC2=O)C1CCOCC1 [Example 63, (E)-10-(ethyl(tetrahydro-2H-pyran-4-yl)amino)-3-methyl-5,6,15,16-tetrahydrodipyrido[3,4-c:3′,4′-j][1]azacyclododecine-1,14(2H,9H)-dione] |
| 200 | Cc1cc2c(c(=O)[nH]1)CNC(=O)c1cccc(O[C@H]3CC[C@H](N(C)C)CC3)c1C/C=C/CC2 [Example 84, (E)-10-((trans-4-(dimethylamino)cyclohexyl)oxy)-3-methyl-5,6,15,16-tetrahydrobenzo[c]pyrido[4,3-j][1]azacyclododecine-1,14(2H,9H)-dione] |
| 251 | CCN(c1cccc2c1C/C=C/CCc1cc(C)[nH]c(=O)c1CNC2=O)C1CC2(CC(N(C)C)C2)C1 (stereo not drawn) [Example 71, (E)-10-((6-(dimethylamino)spiro[3.3]heptan-2-yl)(ethyl)amino)-3-methyl-5,6,15,16-tetrahydrobenzo[c]pyrido[4,3-j][1]azacyclododecine-1,14(2H,9H)-dione] |
| 251 | Cc1cc2c(c(=O)[nH]1)CNC(=O)c1cccc(N(CCO)C3CCOCC3)c1C/C=C/CC2 [Example 64, (E)-10-((2-hydroxyethyl)(tetrahydro-2H-pyran-4-yl)amino)-3-methyl-5,6,15,16-tetrahydrobenzo[c]pyrido[4,3-j][1]azacyclododecine-1,14(2H,9H)-dione] |
| 79 | CCN(c1cccc2c1C/C=C/CCc1cc(C)[nH]c(=O)c1CNC2=O)C1CC2(C1)CN(C)C2 [Example 72, (E)-10-(ethyl(2-methyl-2-azaspiro[3.3]heptan-6-yl)amino)-3-methyl-5,6,15,16-tetrahydrobenzo[c]pyrido[4,3-j][1]azacyclododecine-1,14(2H,9H)-dione] |
| 5010 | Cc1cc2c(c(=O)[nH]1)CNC(=O)c1cccc(O[C@H]3CC[C@H](N(C)C)CC3)c1C/C=C\CC2 [Example 85, (Z)-10-((trans-4-(dimethylamino)cyclohexyl)oxy)-3-methyl-5,6,15,16-tetrahydrobenzo[c]pyrido[4,3-j][1]azacyclododecine-1,14(2H,9H)-dione] |
| 1260 | CCN(c1cccc2c1C/C=C/CCc1cc(C)[nH]c(=O)c1CNC2=O)[C@H]1CC[C@H](N2CCC2)CC1 [Example 60, (E)-10-((trans-4-(azetidin-1-yl)cyclohexyl)(ethyl)amino)-3-methyl-5,6,15,16-tetrahydrobenzo[c]pyrido[4,3-j][1]azacyclododecine-1,14(2H,9H)-dione] |
| 158 | CCN(c1cccc2c1C/C=C\Cc1cc(C)[nH]c(=O)c1CNC2=O)[C@H]1CC[C@H](N(C)C)CC1 [Example 61, (Z)-9-((trans-4-(dimethylamino)cyclohexyl)(ethyl)amino)-3-methyl-5,8,14,15-tetrahydro-1H-benzo[c]pyrido[4,3-i][1]azacycloundecine-1,13(2H)-dione] |
| 158 | CCN(c1cccc2c1C/C=C/CCc1cc(C)[nH]c(=O)c1CNC2=O)C1CCCNCC1 (stereo not drawn) [Example 77, (E)-10-(azepan-4-yl(ethyl)amino)-3-methyl-5,6,15,16-tetrahydrobenzo[c]pyrido[4,3-j][1]azacyclododecine-1,14(2H,9H)-dione] |
| 126 | CCN(c1cccc2c1C/C=C/CCc1cc(C)[nH]c(=O)c1CNC2=O)C1CC2(CCNCC2)C1 [Example 68, (E)-10-(ethyl(7-azaspiro[3.5]nonan-2-yl)amino)-3-methyl-5,6,15,16-tetrahydrobenzo[c]pyrido[4,3-j][1]azacyclododecine-1,14(2H,9H)-dione] |
| 251 | CCOC(=O)C(C)(C)N1CCC(N(CC)c2cccc3c2C/C=C/CCc2cc(C)[nH]c(=O)c2CNC3=O)CC1 [Example 46, (E)-ethyl 2-(4-(ethyl(3-methyl-1,14-dioxo-1,2,5,6,9,14,15,16-octahydrobenzo[c]pyrido[4,3-j][1]azacyclododecin-10-yl)amino)piperidin-1-yl)-2-methylpropanoate] |
| 316 | CCN(c1cccc2c1C/C=C/CCc1cc(C)[nH]c(=O)c1CNC2=O)C1CCN(Cc2cccc(C)n2)CC1 [Example 48, (E)-10-(ethyl(1-((6-methylpyridin-2-yl)methyl)piperidin-4-yl)amino)-3-methyl-5,6,15,16-tetrahydrobenzo[c]pyrido[4,3-j][1]azacyclododecine-1,14(2H,9H)-dione] |
| 158 | CCN(c1cccc2c1C/C=C/CCc1cc(C)[nH]c(=O)c1CNC2=O)[C@H]1CC[C@@H](O)CC1 [Example 78, (E)-10-(ethyl(cis-4-hydroxycyclohexyl)amino)-3-methyl-5,6,15,16-tetrahydrobenzo[c]pyrido[4,3-j][1]azacyclododecine-1,14(2H,9H)-dione] |
| 126 | CCN(c1cccc2c1C/C=C/CCc1cc(C)[nH]c(=O)c1CNC2=O)[C@H]1CC[C@H](NCC(F)F)CC1 [Example 56, (E)-10-((trans-4-((2,2-difluoroethyl)amino)cyclohexyl)(ethyl)amino)-3-methyl-5,6,15,16-tetrahydrobenzo[c]pyrido[4,3-j][1]azacyclododecine-1,14(2H,9H)-dione] |
| 158 | CCN(c1cccc2c1C/C=C/CCc1cc(C)[nH]c(=O)c1CNC2=O)C1CC2(CCN(C)CC2)C1 [Example 69, (E)-10-(ethyl(7-methyl-7-azaspiro[3.5]nonan-2-yl)amino)-3-methyl-5,6,15,16-tetrahydrobenzo[c]pyrido[4,3-j][1]azacyclododecine-1,14(2H,9H)-dione] |
| 126 | CCN(c1cccc2c1C/C=C/CCc1cc(C)[nH]c(=O)c1CNC2=O)[C@H]1CC[C@H](N2CCOCC2)CC1 [Example 50, (E)-10-(ethyl(trans-4-morpholinocyclohexyl)amino)-3-methyl-5,6,15,16-tetrahydrobenzo[c]pyrido[4,3-j][1]azacyclododecine-1,14(2H,9H)-dione] |
| 158 | CCN(CC)[C@H]1CC[C@H](N(CC)c2cccc3c2C/C=C/CCc2cc(C)[nH]c(=O)c2CNC3=O)CC1 [Example 49, (E)-10-((trans-4-(diethylamino)cyclohexyl)(ethyl)amino)-3-methyl-5,6,15,16-tetrahydrobenzo[c]pyrido[4,3-j][1]azacyclododecine-1,14(2H,9H)-dione] |
| 200 | CCN(c1cccc2c1C/C=C/CCc1cc(C)[nH]c(=O)c1CNC2=O)[C@H]1CC[C@@H](N2CC(F)(F)C2)CC1 [Example 80, (E)-10-((cis-4-(3,3-difluoroazetidin-1-yl)cyclohexyl)(ethyl)amino)-3-methyl-5,6,15,16-tetrahydrobenzo[c]pyrido[4,3-j][1]azacyclododecine-1,14(2H,9H)-dione] |

— US20160122342A1, “ENHANCER OF ZESTE HOMOLOG 2 INHIBITORS” (GLAXOSMITHKLINE INTELLECTUAL PROPERTY (NO.2) LIMITED, priority 2013, published 2016)
